Where two headings read alike, the source gives them in different places.
Experiments:
Assay type in all cases: binding
HLA-A*30:01 = HLA-A*30:01 (Homo sapiens, UniProt P04439, D140H/D185E/E176W/F33S/G80R/H175R/K168Q/R138E/R41S); conditions: duplicated experiments, positive binder >40%
HLA-B*07:02 = HLA-B*07:02 (Homo sapiens, UniProt P01889); conditions: percent relative the binding of positive control peptide […]; duplicated experiments; positive binder >40%
HLA-A*24:02 = HLA-A*24:02 (Homo sapiens, UniProt P04439, D101N/D140Y/D185E/E176V/E190D/F33S/G103R/G107R/I119L/I121M/I306V/K335N/L105A/L180Q/L300P/N151K/N90K/Q86E/Q94H/R106L/R138H/R89G/T104I/T345S/V100E/W191G/Y123F); conditions: duplicated experiments, positive binder >40%
HLA-C*07:01 = HLA-C*07:01 (Homo sapiens, UniProt P10321, K90N/S123Y); conditions: duplicated experiments, positive binder >40%
HLA-A*02:01 = HLA-A*02:01 (Homo sapiens, UniProt P04439, D140Y/D185E/D98H/E176V/E277Q/G131W/G231S/I119V/I121R/I166T/I218V/L300P/L318F/N151K/N90K/P208A/P217A/Q86G/Q94H/R138H/R169H/T345S); conditions: plate-bound monomer 0.5 µg/ml, duplicated experiments, positive binder >40%
HLA-A*68:01 = HLA-A*68:01 (Homo sapiens, UniProt P04439, A269V/D185E/E176V/E277Q/E87N/F33Y/G231S/I121M/I166T/I218V/L180W/L300P/L318F/N151K/P208A/P217A/Q86R/R169H/T345S); conditions: duplicated experiments, positive binder >40%
HLA-B*58:01 = HLA-B*58:01 (Homo sapiens, UniProt P01889, A329T/C349S/D201E/D98Y/E176V/E187L/E204Q/E69T/G107R/I218V/I90N/K202T/L105A/L119I/N104I/N87E/Q89R/Q94S/R106L/R155S/R180L/R86G/S101N/S121R/S35A/S48A/T118I/V127L/V306I/V36M/Y140S/Y91M); conditions: duplicated experiments, positive binder >40%
HLA-A*30:02 = HLA-A*30:02 (Homo sapiens, UniProt P04439, D101N/D140H/D185E/E176R/F33S/G80R/H175R/K168Q/Q94H/R138E/R41S/V100E); conditions: duplicated experiments, positive binder >40%
[1] = percent relative the binding of positive control peptide […]

Row | Sequence | Bind A*30:01 (HLA-A*30:01; [1]) [%] | Bind B*07:02 (HLA-B*07:02) [%] | Bind A*24:02 (HLA-A*24:02; [1]) [%] | Bind C*07:01 (HLA-C*07:01; [1]) [%] | Bind A*02:01 (HLA-A*02:01; [1]) [%] | Bind A*68:01 (HLA-A*68:01; [1]) [%] | Bind B*58:01 (HLA-B*58:01; [1]) [%] | Bind A*30:02 (HLA-A*30:02; [1]) [%] | Bind A*30:01 (HLA-A*30:01; percent relative the binding of positive control peptide KTKDIVNGL) [%] | Bind A*24:02 (HLA-A*24:02; percent relative the binding of positive control peptide RYLKDQQLL) [%] | Bind C*07:01 (HLA-C*07:01; percent relative the binding of positive control peptide KYFDEHYEY) [%] | Bind A*02:01 (HLA-A*02:01; percent relative the binding of positive control peptide FLPSDFFPSV) [%] | Bind A*68:01 (HLA-A*68:01; percent relative the binding of positive control peptide KTGGPIYKR) [%] | Bind B*58:01 (HLA-B*58:01; percent relative the binding of positive control peptide IAMESIVIW) [%] | Bind A*30:02 (HLA-A*30:02; percent relative the binding of positive control peptide KIQNFRVYY) [%]
1 | GSAAIGLSM | 0 | 38 | 7 | 66 | 31 | 5 | 38 | 9 |  |  |  |  |  |  | 
2 | YLLDGLRAQ | 0 | 0 | 0 | 0 | 111 | 15 | 0 | 10 |  |  |  |  |  |  | 
3 | NAAGGHNAV | 27 | 16 | 0 | 5 | 39 | 28 | 43 | 2 |  |  |  |  |  |  | 
4 | QQWNFAGIE [Rv3875_4–12] |  | 1 |  |  |  |  |  |  | 0 | 0 | 11 | 45 | 15 | 0 | 39
5 | LDPSQGMGP | 32 | 43 | 12 | 18 | 41 | 0 | 12 | 0 |  |  |  |  |  |  | 
6 | IPAEFLENF | 0 | 47 | 48 | 2 | 17 | 0 | 0 | 0 |  |  |  |  |  |  | 
7 | NFPPNGTHS | 11 | 0 | 0 | 0 | 14 | 0 | 26 | 43 |  |  |  |  |  |  | 
8 | VQFQSGGNN | 0 | 0 | 0 | 0 | 0 | 0 | 0 | 51 |  |  |  |  |  |  | 
9 | MGPSLIGLA | 15 | 5 | 0 | 14 | 68 | 0 | 41 | 0 |  |  |  |  |  |  | 
10 | LLDGLRAQD | 8 | 0 | 0 | 0 | 63 | 16 | 0 | 140 |  |  |  |  |  |  | 

— PMC3608651, “A Broad Profile of Co-Dominant Epitopes Shapes the Peripheral Mycobacterium tuberculosis Specific CD8+ T-Cell Immune Response in South African Patients with Active Tuberculosis” (PLoS ONE, 2013)
